These results are taken from patent US20220403364A1, “BACTERIA IN 3D POROUS MEDIA” (The Trustees of Princeton University, priority 2019, published 2022).

Experiment [1] deals with bacteria. Briefly: bacterial growth in the 3D porous medium with antibiotic (light absorbance at 600 nm). The experiment is classed as cell-based. The settings on record: porous media. Here is the method: In some embodiments, changes in growth/motility due to changes in antibiotic or antibiotic concentrations can be quantified. […] Using an 0.81% gel with different concentrations of kanamycin ([…] (ref 504), 317.5 μg/ml (ref 503), 156.25 μg/ml (ref 502), and 78.125 μg/ml (ref 501)), it can be seen that for the two highest concentrations, there was no growth.
(§1) In both figures, different concentrations of ampicillin were tested 1 μg/ml (ref. 511, 521), 2 μg/ml (ref 512, 522), 3 μg/ml (ref 513, 523), 4 μg/ml (ref 514, 524) and 6 μg/ml (ref 515, 525). For FIG. 6B, the different concentrations were added to bacteria in liquid LB media with no shaking.
(§2) In FIGS. 6A-6C, the levels of bacteria were monitored by measuring light absorbance at 600 nm. In some embodiments, the cells or media is irradiated with light from a light source positioned above the cells, and a lens or sensor positioned below the cells then captures the light either being emitted from the cells (i.e., the intensity of light being emitted by a marker gene, etc.) or being transmitted through the cells (i.e., not being absorbed). A processor can then be used to quantify the measured light or sensor signals. Further a processor can also be used to convert the measured light or sensor signals into concentrations or bacterial cell counts, via, e.g., calibration curves. Based on that, various antibiotic performance characteristics can be determined—MIC, minimal bactericidal concentration (MBC), etc.

The subject of experiment [2] is bacteria. Put plainly: bacterial growth in liquid LB media with no shaking, with antibiotic (light absorbance at 600 nm). The experiment is classed as cell-based. As for the experimental part:
as §1, §2

With `CC1(C)S[C@@H]2[C@H](NC(=O)[C@H](N)c3ccccc3)C(=O)N2[C@H]1C(=O)O` [ampicillin], the bacterial growth result in the experiment on bacteria [1] (ampicillin 1 μg/ml, FIG. 6C ref 521) was “showed growth”; in the experiment with bacteria [1] (ampicillin 2 μg/ml, FIG. 6C ref 522), “only the 1 μg/ml concentration showed growth”; in the experiment on bacteria [1] (ampicillin 3 μg/ml, FIG. 6C ref 523), “only the 1 μg/ml concentration showed growth”; with bacteria [1] (ampicillin 4 μg/ml, FIG. 6C ref 524) it was “only the 1 μg/ml concentration showed growth”; in the experiment with bacteria [1] (ampicillin 6 μg/ml, FIG. 6C ref 525), “only the 1 μg/ml concentration showed growth”; with bacteria [2] (ampicillin 1 μg/ml, FIG. 6B ref 511), “growth was detected”. The bacterial growth result with bacteria [2] (ampicillin 2 μg/ml, FIG. 6B ref 512) is “growth was detected”; with bacteria [2] (ampicillin 3 μg/ml, FIG. 6B ref 513) it was “growth was detected”; with bacteria [2] (ampicillin 4 μg/ml, FIG. 6B ref 514), “no growth”; in the experiment on bacteria [2] (ampicillin 6 μg/ml, FIG. 6B ref 515), “no growth”.
